{
  "source": "BindingDB's records for doi:10.1111/cbdd.12089",
  "about": "(Southeast University, 2013)",
  "key": {"Aurora kinase A": {"target": "T1, Aurora kinase A (Homo sapiens, UniProt O14965)", "T1 sequence (O14965 whole entry)": "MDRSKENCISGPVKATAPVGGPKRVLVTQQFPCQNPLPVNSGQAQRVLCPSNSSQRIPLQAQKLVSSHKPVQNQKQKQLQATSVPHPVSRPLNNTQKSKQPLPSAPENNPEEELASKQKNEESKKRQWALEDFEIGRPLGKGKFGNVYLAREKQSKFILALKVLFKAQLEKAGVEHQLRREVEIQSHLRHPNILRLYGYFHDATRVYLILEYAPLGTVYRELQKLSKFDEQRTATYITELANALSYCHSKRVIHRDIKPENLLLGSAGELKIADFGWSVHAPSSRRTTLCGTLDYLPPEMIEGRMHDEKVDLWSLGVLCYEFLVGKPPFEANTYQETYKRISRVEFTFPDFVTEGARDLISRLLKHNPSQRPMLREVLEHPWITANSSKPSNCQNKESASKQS", "test": "Aurora Kinase Assay", "procedure": "(§1) The kinase assay of Aurora A and B was measured using HTRF-kinEASE-STK discovery kit purchased from Cisbio."}, "Aurora kinase B": {"target": "Aurora kinase B (Homo sapiens, UniProt Q96GD4)", "sequence (Q96GD4 whole entry)": "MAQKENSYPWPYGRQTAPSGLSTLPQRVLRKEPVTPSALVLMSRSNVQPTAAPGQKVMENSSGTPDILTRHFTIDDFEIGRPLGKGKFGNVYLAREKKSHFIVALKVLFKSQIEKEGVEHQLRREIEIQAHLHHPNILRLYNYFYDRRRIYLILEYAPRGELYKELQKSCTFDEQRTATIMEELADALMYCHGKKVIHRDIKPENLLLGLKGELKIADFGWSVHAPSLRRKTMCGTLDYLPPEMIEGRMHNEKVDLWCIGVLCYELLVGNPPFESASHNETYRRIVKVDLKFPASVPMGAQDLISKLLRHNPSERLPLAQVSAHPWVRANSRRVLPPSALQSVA", "test": "Aurora Kinase Assay", "procedure": "as §1"}},
  "note": "pIC50: −log10 of the molar value.",
  "data": [
    {"molecule": "Cc1ccc(Nc2ncnc3cc(OCCCN4CCOCC4)ccc23)cc1Nc1ncc(-c2cccnc2)cn1", "note": "[4-Aminoquinazoline derivative, 6a]", "values": [
      {"measurement": "pIC50", "setting": "Aurora kinase A", "value": 6.75},
      {"measurement": "pIC50", "setting": "Aurora kinase B", "value": 6.72}
    ]},
    {"molecule": "Cc1ccc(Nc2ncnc3cc(OCCCN4CCCCC4)ccc23)cc1Nc1ncc(-c2cccnc2)cn1", "note": "[4-Aminoquinazoline derivative, 6b]", "values": [
      {"measurement": "pIC50", "setting": "Aurora kinase A", "value": 6.49},
      {"measurement": "pIC50", "setting": "Aurora kinase B", "value": 6.31}
    ]},
    {"molecule": "CCN(CC)CCCOc1ccc2c(Nc3ccc(C)c(Nc4ncc(-c5cccnc5)cn4)c3)ncnc2c1", "note": "[4-Aminoquinazoline derivative, 6c]", "values": [
      {"measurement": "pIC50", "setting": "Aurora kinase A", "value": 7.01},
      {"measurement": "pIC50", "setting": "Aurora kinase B", "value": 6.69}
    ]},
    {"molecule": "Cc1ccc(Nc2ncnc3cc(OCCCN4CCCC4)ccc23)cc1Nc1ncc(-c2cccnc2)cn1", "note": "[4-Aminoquinazoline derivative, 6d]", "values": [
      {"measurement": "pIC50", "setting": "Aurora kinase A", "value": 7.11},
      {"measurement": "pIC50", "setting": "Aurora kinase B", "value": 6.84}
    ]},
    {"molecule": "CCOC(=O)c1csc2cc(Nc3ncnc4cc(OCCCN5CCN(C)CC5)ccc34)ccc12", "note": "[4-Aminoquinazoline derivative, 6f]", "values": [
      {"measurement": "pIC50", "setting": "Aurora kinase A", "value": 6.95},
      {"measurement": "pIC50", "setting": "Aurora kinase B", "value": 6.87}
    ]},
    {"molecule": "CCOC(=O)c1csc2cc(Nc3ncnc4cc(OCCCN5CCCCC5)ccc34)ccc12", "note": "[4-Aminoquinazoline derivative, 6g]", "values": [
      {"measurement": "pIC50", "setting": "Aurora kinase A", "value": 6.09}
    ]},
    {"molecule": "CCOC(=O)c1csc2cc(Nc3ncnc4cc(OCCCN5CCCC5)ccc34)ccc12", "note": "[4-Aminoquinazoline derivative, 6h]", "values": [
      {"measurement": "pIC50", "setting": "Aurora kinase A", "value": 7.21},
      {"measurement": "pIC50", "setting": "Aurora kinase B", "value": 6.84}
    ]},
    {"molecule": "CCOC(=O)c1csc2cc(Nc3ncnc4cc(OCCCN(CC)CC)ccc34)ccc12", "note": "[4-Aminoquinazoline derivative, 6i]", "values": [
      {"measurement": "pIC50", "setting": "Aurora kinase A", "value": 6.10},
      {"measurement": "pIC50", "setting": "Aurora kinase B", "value": 6.05}
    ]}
  ]
}
